Source: US20080242681A1, “N-4-(6-(Hetero)Aryl-Pyrimidin-4-Ylaminophenyl)-Benzenesulfonamides as Kinase Inhibitors” (Altana Pharma AG, priority 2004, published 2008)
Where a name gives a salt, the structure may show the parent alone. Values belong to the molecule of their own block, whether it stands above or below them.

How the values were obtained:
[1] = biological target: T1, PKCδ (Homo sapiens, UniProt Q05655); experiment: Protein Kinase C δ assay (SPA); type: biochemical; conditions: human recombinant PKCδ, PKCη pseudosubstrate, read-out: IC50, inhibition of PKC δ
T1 construct: purchased Panvera
Protocol: (§1) The compounds of formula 1 are tested for their activity on different protein kinases and PKC isoforms using a scintillation proximity assay (SPA, Amersham International plc). ^33P-labeled peptides are captured onto streptavidin coated yttrium silicate SPA beads. β-particles, emitted from the captured ^33P-labeled substrate in close proximity to the bead are able to excite the scintillant, resulting in the generation of quantifiable light. The assay is performed in a 96-well polystyrene microtiterplate (1450-514, Isoplates, Wallac, Turku, Finland). The reaction mixture (50 μl) contains 10 μl of the test compound together with 10 μl of the relevant kinase, diluted in the relevant dilution buffer, 5 μl of 10 μM phorbol myristate acetate (PMA) in H2O, 5 μl of 1.6 mM phosphatidylserine (Sigma-Aldrich Chemie GmbH, Stein-heim, Germany) in 20 mM Tris/HCL buffer pH 7.4, 5 μl of 0.3% BSA in H2O, 5 μl of 30 μM relevant substrate and 10 μl of 5 μM ATP and 0.1 μCi of ^33P-ATP (Amersham, Freiburg, Germany) in 200 mM Tris/HCL pH 7.5 and 200 mM MgCl2. Incubation is performed for 40 min at room temperature (RT) without shaking. Reaction is stopped by adding 150 μl of cold stop solution containing 10 mM ATP, 5 mM EGTA pH 7.5, 0.1% Triton X-100 and 0.2 mg streptavidin coated yttrium silicate SPA beads (Amersham, RPNQ 0012). The sealed plate is incubated for 60 min at RT. Thereafter the MTP is counted in a Microbeta Jet (Wallac). IC50 measurement is performed on a routine basis by incubation a serial dilution of inhibitor at concentrations ranging between 0.01 and 100 μM according to the method described above. Background values are the signals of the reaction mixture without addition of the relevant kinase and are subtracted from all values. 100% values are the signals of the reaction mixture without addition of inhibitors.
Dependent on the efficacy of the inhibitors In the various test systems, corresponding IC50 values are calculated from concentration-inhibition curves by nonlinear regression analysis using the program GraphPad Prism (GraphPad Software Inc., San Diego, Calif.). […]

[2] = tested on: primary human CD4+ T lymphocytes; experiment: CD3/CD28 costimulation assay, IL-2 release; type: cell-based; conditions: 48 h, IL-2 ELISA, read-out: IC50, inhibition of IL-2 release from stimulated CD4+ T lymphocytes
Protocol: The assay is performed with freshly isolated primary human CD4+ T lymphocytes. CD4+ T lymphocytes from whole blood are prepared using negative selection as previously described (Hatzelmann and Schudt, J. Pharmacol. Exp. Ther. 2001; 297:267-279). In brief, peripheral blood mononuclear cells (PBMC) are isolated by density gradient centrifugation using a Percoll gradient (p= 1.077 g/ml). 1×10^7 PBMC were then resuspended in 30 μl of PBS containing 0.5% FCS and human CD4+ T lymphocytes are isolated by depletion of non CD4+ T cells. For this, non-CD4+ T cells are Indirectly magnetically labeled with 10 μl of a cocktail of biotin-conjugated monoclonal antibodies (against CD8, CD14, CD16, CD19, CD36, CD56, CD123, TCR γ/δ; MACS CD4+ T cell isolation kit II, Miltenyi Biotec), as primary labeling reagent, and anti-biotin monoclonal antibodies conjugated to MicroBeads, as secondary labeling reagent The magnetically labeled non-CD4+ T cells are depleted by retaining them on a MACS column in the magnetic field of a MACS separator (Miltenyi Biotec, Bergisch Gladbach, Germany) according to the manufacturer's instruction. CD4+ T cells are resuspended in RPM 11640 containing 10% heat-inactivated FCS, 2 mM L-glutamine, 100 U/ml penicillin and 100 μg/ml streptomycin (Gibco Life Technologies).
2×10^5 CD4+ T cells in a total assay volume of 200 μl are stimulated via the T-cell receptor and the costimulatory molecule CO28 by using corresponding selective mAbs as previously described (Hatzelmann and Schudt, J. Pharmacol. Exp. Ther. 2001; 297:267-279). The assay is performed in 96 well tissue culture plates (655180, flat bottom, Greiner, Frickenhausen, Germany). Cells were maintained at 37° C. in a humidified atmosphere of 5% CO2 in an incubator (type BB6220 CU, Heraeus Instruments, Hanau, Germany). For determination of IL-2 level, all assays are performed in duplicate, and after 48 h of growth, supernatants are removed, pooled in 96 well plates (650101, U-shape, Greiner) and stored at −20° C. before measurement of IL-2 with a commercially available enzymimmunoassay kit from Coulter-Immunotech Diagnostics (Marseille, France) according to the manufacturer's instruction. For each experiment the appropriate dilution factor for IL-2 is determined. Dilutions are performed in diluent D (Coulter-Immunotech Diagnostics) and IL-2 for one condition is determined from the pool fraction in duplicate in a ELISA-reader (Rainbow, Tecan, Crailsheim, Germany) at 450 nm.
To investigate the effect of a test compound on the IL-2 release of stimulated CD4+ T cells, six three-fold dilution steps in duplicates per test compound are performed (final DMSO concentration 0.1%). […] The inhibition obtained In the presence of a test compound is calculated as percent inhibition of the high control. […]

[3] = tested on: responder T cells; experiment: Mixed lymphocyte reaction (MLR), T cell proliferation; type: cell-based; conditions: [3H]thymidine incorporation after 48 h, read-out: IC50, inhibition of MLR-mediated T-cell proliferation
Protocol: For MLR cultures 4×10^5 responder T cells are incubated in duplicates with 2×10^5 mitomycin C-treated allogeneic stimulator T cells in a total volume of 200 μl RPMI 1640 medium supplemented with 10% FCS, 2 mM L-glutamine, 100 U/ml penicillin and 100 μg/ml streptomycin (Gibco Life Technologies) in 96 well tissue culture plates (655180, flat bottom, Greiner). Cells are maintained at 37° C. in a humidified atmosphere of 5% CO2. After 48 h of growth, cells are pulsed with 1 μCi [^3H]thymidine and incorporation of [^3H]thymidine is measured with a Topcount radioactive counter (Packard). To investigate the effect of a test compound on MLR-mediated T cell proliferation six three-fold dilution steps in duplicates per test compound are performed (final DMSO concentration 0.1%). Low control values are the proliferation of responder cells alone; high controls are from mixed lymphocyte cells without any test samples. Low controls are subtracted from all values. The inhibition obtained in the presence of a test compound is calculated as percent Inhibition of the high control. The concentration of test compounds resulting in 50% inhibition (IC50) is determined from the dose-response curves. The examples 91, 128, 133 and 137 inhibit MLR-mediated T-cell proliferation in this assay with an IC50<1 μM.

[4] = biological target: T2, PKCη (Homo sapiens, UniProt P24723); experiment: Protein Kinase C η assay (SPA); type: biochemical; conditions: human recombinant PKCη from Sf21 insect cells, read-out: IC50, inhibition of PKC η
T2 construct: made in house; host or cells: Sf21 insect cells
Protocol: as §1
(§2) Dependent on the efficacy of the inhibitors In the various test systems, corresponding IC50 values are calculated from concentration-inhibition curves by nonlinear regression analysis using the program GraphPad Prism (GraphPad Software Inc., San Diego, Calif.).
(§3) Human recombinant nickel bead purified PKCη from Sf21 insect cells is used under the assay conditions as described above (Section A.1). The enzyme is diluted in PKC dilution buffer containing 1 mM Hepes pH 7.4, 0.5 mM DTT and 0.001% Triton X-100. The kinase reaction is performed with the biotinylated PKCη pseudosubstrate solved in H2O. The examples 52, 55, 118 and 135 inhibit PKC η in this assay with an IC50 between 6 and 50 μM.

[5] = biological target: T3, PKCθ (Homo sapiens, UniProt Q04759); experiment: Protein Kinase C θ assay (SPA); type: biochemical; conditions: human recombinant PKCθ from Sf21 insect cells, read-out: IC50, inhibition of PKC θ
T3 construct: made in house; host or cells: Sf21 insect cells
Protocol: as §1, §2
as §3, with “PKCθ” for “PKCη”, “8, 22, 46, 115,” for “52, 55,”, “161” for “135”, “9” for “η”, “IC50<1” for “IC50 between 6 and 50”

T1 sequence (Q05655 whole entry): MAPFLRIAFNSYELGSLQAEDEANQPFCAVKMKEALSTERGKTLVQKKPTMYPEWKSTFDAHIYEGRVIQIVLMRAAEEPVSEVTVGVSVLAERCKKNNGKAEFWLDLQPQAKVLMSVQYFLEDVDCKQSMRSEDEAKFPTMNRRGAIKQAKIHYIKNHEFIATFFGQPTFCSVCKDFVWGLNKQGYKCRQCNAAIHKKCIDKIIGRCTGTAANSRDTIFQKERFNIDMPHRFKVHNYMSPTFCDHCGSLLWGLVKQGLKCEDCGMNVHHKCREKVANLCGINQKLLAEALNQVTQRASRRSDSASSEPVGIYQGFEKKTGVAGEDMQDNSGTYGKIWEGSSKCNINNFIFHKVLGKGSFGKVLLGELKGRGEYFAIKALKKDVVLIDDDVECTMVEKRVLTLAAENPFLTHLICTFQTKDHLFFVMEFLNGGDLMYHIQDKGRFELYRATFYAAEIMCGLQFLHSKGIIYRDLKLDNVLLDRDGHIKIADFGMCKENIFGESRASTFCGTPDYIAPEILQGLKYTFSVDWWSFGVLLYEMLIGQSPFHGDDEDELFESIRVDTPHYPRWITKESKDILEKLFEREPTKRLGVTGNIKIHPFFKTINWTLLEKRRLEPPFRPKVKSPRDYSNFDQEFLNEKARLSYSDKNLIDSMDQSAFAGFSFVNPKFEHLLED
T2 sequence (P24723 whole entry): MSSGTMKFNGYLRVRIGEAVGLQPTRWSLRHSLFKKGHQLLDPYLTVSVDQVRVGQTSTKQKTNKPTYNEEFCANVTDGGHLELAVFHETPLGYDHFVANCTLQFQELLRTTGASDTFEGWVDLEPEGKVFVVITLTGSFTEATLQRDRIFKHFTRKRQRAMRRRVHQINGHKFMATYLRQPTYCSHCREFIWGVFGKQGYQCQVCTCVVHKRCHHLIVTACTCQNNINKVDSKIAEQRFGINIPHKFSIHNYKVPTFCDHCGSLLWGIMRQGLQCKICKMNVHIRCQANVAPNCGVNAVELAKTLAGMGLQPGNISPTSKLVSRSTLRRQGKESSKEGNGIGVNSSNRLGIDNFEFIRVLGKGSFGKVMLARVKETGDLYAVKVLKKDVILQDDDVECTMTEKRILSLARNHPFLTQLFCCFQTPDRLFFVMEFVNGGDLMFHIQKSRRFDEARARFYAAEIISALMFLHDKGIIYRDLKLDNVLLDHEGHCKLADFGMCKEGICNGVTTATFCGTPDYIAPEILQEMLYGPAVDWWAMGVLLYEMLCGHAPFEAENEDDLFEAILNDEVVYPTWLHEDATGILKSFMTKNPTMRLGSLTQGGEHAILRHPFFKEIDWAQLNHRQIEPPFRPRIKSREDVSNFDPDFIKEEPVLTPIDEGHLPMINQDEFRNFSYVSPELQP
T3 sequence (Q04759 whole entry): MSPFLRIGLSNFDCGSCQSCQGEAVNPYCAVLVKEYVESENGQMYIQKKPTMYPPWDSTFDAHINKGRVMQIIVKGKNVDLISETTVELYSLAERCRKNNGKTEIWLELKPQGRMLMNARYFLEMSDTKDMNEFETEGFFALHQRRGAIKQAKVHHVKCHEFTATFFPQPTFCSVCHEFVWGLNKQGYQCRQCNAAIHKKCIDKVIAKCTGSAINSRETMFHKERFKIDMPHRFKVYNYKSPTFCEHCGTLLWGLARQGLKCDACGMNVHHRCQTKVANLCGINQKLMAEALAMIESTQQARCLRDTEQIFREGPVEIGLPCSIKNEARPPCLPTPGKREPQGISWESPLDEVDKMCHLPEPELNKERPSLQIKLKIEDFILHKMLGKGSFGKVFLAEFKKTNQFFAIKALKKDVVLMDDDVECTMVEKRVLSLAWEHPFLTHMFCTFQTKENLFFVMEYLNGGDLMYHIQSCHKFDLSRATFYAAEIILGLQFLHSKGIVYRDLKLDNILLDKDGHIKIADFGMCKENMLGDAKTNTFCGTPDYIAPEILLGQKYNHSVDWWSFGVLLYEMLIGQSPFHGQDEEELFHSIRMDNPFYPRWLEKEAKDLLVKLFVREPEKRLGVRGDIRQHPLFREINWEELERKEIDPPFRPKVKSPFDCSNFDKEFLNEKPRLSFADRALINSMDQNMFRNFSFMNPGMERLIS

- IC50 [1]: 2000 to 18000 nM
SMILES: COc1ccc(S(=O)(=O)Nc2ccc(Nc3cc(-c4ccc5c(ccn5CCN(C)C)c4)ncn3)cc2)cc1 [Example 132, N-(4-{6-[1-(2-Dimethylamino-ethyl)-1H-indol-5-yl]-pyrimidin-4-ylamino}-phenyl)-4-methoxy-benzenesulfonamide]

- IC50 [2]: 1000 to 9000 nM
SMILES: O=S(=O)(Nc1ccc(Nc2cc(-c3cccc4ccccc34)ncn2)cc1)c1ccccc1F [Example 13, 2-Fluoro-N-[4-(6-naphthalen-1-yl-pyrimidin-4-ylamino)-phenyl]-benzenesulfonamide]

SMILES: CN(C)CCCn1ccc2cc(-c3cc(Nc4ccc(NS(=O)(=O)c5ccc(F)c(Cl)c5)cc4)ncn3)ccc21 [Example 137, 3-Chloro-N-(4-{6-[1-(3-dimethylamino-propyl)-1H-indol-5-yl]-pyrimidin-4-ylamino}-phenyl)-4-fluoro-benzenesulfonamide]
- IC50 [3]: < 1000 nM

- IC50 [2]: 1000 to 9000 nM
SMILES: Cc1ccc(S(=O)(=O)Nc2ccc(Nc3cc(-c4ccc5c(ccn5CCN(C)C)c4)ncn3)cc2)cc1 [Example 136, N-(4-{6-[1-(2-Dimethylamino-ethyl)-1H-indol-5-yl]pyrimidin-4-ylamino}-phenyl)-4-methyl-benzenesulfonamide]

SMILES: CN1CCC(COc2ccc(-c3cc(Nc4ccc(NS(=O)(=O)c5ccc(F)cc5F)cc4)ncn3)cc2)CC1 [Example 91, 2,4-Difluoro-N-(4-{6-[4-(1-methyl-piperidin-4-ylmethoxy)-phenyl]-pyrimidin-4-ylamino}-phenyl)-benzenesulfonamide formic acid salt]
- IC50 [3]: < 1000 nM

- IC50 [1]: 2000 to 18000 nM
SMILES: CN(C)CCn1ccc2cc(-c3cc(Nc4ccc(NS(=O)(=O)c5ccc(F)c(Cl)c5)cc4)ncn3)ccc21 [Example 138, 3-Chloro-N-{4-[6-[1-(2-dimethylamino-ethyl)-1H-indol-5-yl]pyrimidin-4-ylamino]-phenyl}-4-fluoro-benzenesulfonamide]

- IC50 [2]: 1000 to 9000 nM
SMILES: COc1cccc(-c2cc(Nc3ccc(NS(=O)(=O)c4ccccc4F)cc3)ncn2)c1 [Example 20, 2-Fluoro-N-{4-[6-(3-methoxy-phenyl)-pyrimidin-4-ylamino]-phenyl}-benzenesulfonamide]

- IC50 [4]: 6000 to 50000 nM
- IC50 [5]: < 1000 nM
SMILES: O=S(=O)(Nc1ccc(Nc2cc(-c3ccc4[nH]ccc4c3)ncn2)cc1)c1ccc(F)cc1F [Example 118, 2,4-Difluoro-N-{4-[6-(1H-indol-5-yl)-pyrimidin-4-ylamino]-phenyl}-benzenesulfonamide]

- IC50 [2]: 1000 to 9000 nM
SMILES: COc1cccc(-c2cc(Nc3ccc(NS(=O)(=O)c4ccc(C#N)cc4)cc3)ncn2)c1 [Example 19, 4-Cyano-N-{4-[6-(3-methoxy-phenyl)-pyrimidin-4-ylamino]phenyl}benzenesulfonamide]

SMILES: CN(C)CCCn1ccc2cc(-c3cc(Nc4ccc(NS(=O)(=O)c5ccc(F)cc5F)cc4)ncn3)ccc21 [Example 133, N-(4-{6-[1-(3-Dimethylamino-propyl)-1H-indol-5-yl]-pyrimidin-4-ylamino}-phenyl)-2,4-difluorobenzenesulfonamide]
- IC50 [3]: < 1000 nM

- IC50 [1]: 2000 to 18000 nM
SMILES: CCN(CC)CCCn1ccc2cc(-c3cc(Nc4ccc(NS(=O)(=O)c5ccc(F)cc5F)cc4)ncn3)ccc21 [Example 168, N-(4-{6-[1-(3-Diethylamino-propyl)-1H-indol-5-yl]-pyrimidin-4-ylamino}-phenyl)-2,4-difluoro-benzenesulfonamide formic acid salt]
